# From patent publication US4259342A, “Antianginal treatment with azepine derivatives” (priority 1978, dated 1981)
# Counter-ions that a name gives are not always drawn. Like-named read-outs stand apart in the source and are kept apart here.
# Columns and labels:
# vagotomized rats = test: heart rate lowering effect on vagotomized rats; assay type: in vivo; conditions: Rattus norvegicus, iv, 0.5 h, read-out: D50 (dose which lowers the heart rate by 50 beats/min.)
# Experimental: were tested as follows with regard to their heart rate lowering effect on vagotomized rats:
# The animals were vagotomized and received a tracheal cannula; a polyethylene catheter was placed into the jugular vein. For measuring the ECG, needle electrodes were clamped to the extremities. During the test the body temperature of the animals was kept constant (34° C.).
# After balancing out a constant starting heart rate (determined by counting the heart beats from the ECG), the test compound was intravenously administered to the animal. 30 minutes later the type was measured again.
# Each compound was tested at 3 dosages administered to each of 6 animals; only one compound and dose per animal.
# The average of the 6 single values per dose (Δ heart rate in beats/min.) was determined, and the dose activity curves were prepared, from which the D50 (dose which lowers the heart rate by 50 beats/min.) was determined:
# [1] = acute toxicity in mice after administration per os (Litchfield and Wilcoxon); conditions: mouse, in vivo, po, mice of both sexes, deaths within 14 days
# Experimental: The acute toxicity was determined in mice of both sexes with an average body weight of 20 gm after administration per os. From the percentage of the animals which died within 14 days after the administration of various doses, the LD50 was determined according to the method of Litchfield and Wilcoxon (J. Pharmacol. exp. Ther. 96, 99 (1949): […]
# [2] = tested on: patients with angina pectoris; test: exercise test on bicycle ergometer in patients with angina pectoris, crossover single-blind against placebo (antianginal activity); assay type: in vivo
# Experimental: The antianginal activity of
# was determined in patients with angina pectoris as follows:
# 11 Patients with clinical and electrocardiographic symptoms of coronary insufficiency were selected for a crossover comparative single-blind study of compound A against placebo. Only those patients were allocated to one of the 2 treatments who complained of precordial pain at the same workload on 3 different days during the run-in period. In order to avoid carry-over effects the sequence of treatment was A placebo in every patient. 30 minutes after the injection of the test substance the patients were exercised on a bicycle ergometer. They started with a workload of 25 watts, which was increased every 3 minutes by 25 watts until the onset of pain. The heart rate and the blood pressure were registered every minute. The heart rate was determined by means of an ECG; the measurement of the blood pressure was carried out according to Riva-Rocci always by the same medical assistant.
# The following parameters were evaluated:
# 1. Time until the onset of pain
# 2. Heart rate at the onset of pain
# 3. Blood pressure at the onset of pain
# 4. The workload performed, resulting from the sum of the products multiplied by the watts per minute (W×min).
# 5. The maximum workload, which results from the watts of the last complete exercise period (lasting 3 minutes) and the watts of the next unfinished period (watts)
# 6. The pressure frequency product as index for the oxygen consumption, which was calculated from the product of the heart rate and of the systolic blood pressure.
# Since some patients reported pain without depression of the ST segment, ST segment was not evaluated
# [3] = i.v., vagotomized rats, 30 minutes after administration, 3 dosages, 6 animals each
# [4] = at the moment of the highest comparable workload, 30 minutes after injection
# [5] = at the onset of pain, 30 minutes after injection
smiles,measurement,setting,value
"C=CCN1CCc2nc(N)oc2CC1 [B, 2-Amino-6-allyl-4,5,7,8-tetrahydro-6H-oxoazolo[5,4-d]azepine dihydrochloride]",ED (50 beats/min),vagotomized rats; [3],0.1 mg/kg
"CCN1CCc2nc(N)sc2CC1.Cl.Cl [C, 2-Amino-6-ethyl-4,5,7,8-tetrahydro-6H-thiazolo[5,4-d]azepine dihydrochloride]",ED (50 beats/min),vagotomized rats; [3],0.032 mg/kg
same,LD50 at 336 h,[1],> 1500 mg/kg
"CCN1CCc2nc(N)oc2CC1.Cl.Cl [Compound A, 2-Amino-6-ethyl-4,5,7,8-tetrahydro-6H-oxazolo[5,4-d]azepine dihydrochloride]",increase of duration of exercise performance (time patients could be exercised longer) vs control,"[2]; 30 minutes after injection, control 6 minutes on the average",2 min
same,reduction of heart rate at the highest comparable workload,"[2]; at the highest comparable workload, 30 minutes after injection",12 beats/min
same,diastolic blood pressure at the highest comparable workload,[2]; [4],unchanged
same,reduction of systolic blood pressure at the highest comparable workload,[2]; [4],19 mm Hg
same,diastolic blood pressure at the onset of pain,[2]; [5],unchanged
same,increase of heart rate at the onset of pain,[2]; [5],2 beats/min
same,reduction of systolic blood pressure at the onset of pain,[2]; [5],8 mm Hg
same,difference of heart rate between placebo and compound A during the last complete minute before stopping,"[2]; last complete minute before stopping, direction not given",3 beats/min
same,reduction of systolic blood pressure over placebo during the last minute before stopping,[2]; last minute before stopping,9 mm Hg
same,product of pressure frequency during the last minute before stopping,"[2]; last minute before stopping, placebo 313",295
same,product of pressure frequency at the highest comparable strain,"[2]; moment of the highest comparable strain, placebo 310",258
same,maximum work (maximum workload),[2]; placebo 76 watts,87 watts
same,average work performed until workload was stopped,[2]; placebo 495 W×min,627 W×min
same,O2 consumption of the heart (concluded from rate/pressure product),[2]; summary in words,diminishes O2 consumption
same,effect on duration of exercise and exercise capacity,[2]; summary in words,increases the duration of exercise and exercise capacity
same,ED (50 beats/min),vagotomized rats,0.5 mg/kg
same,LD50 at 336 h,[1],2210 mg/kg
"CCCN1CCc2nc(N)sc2CC1.Cl.Cl [Compound D, 2-Amino-6-n-propyl-4,5,7,8-tetrahydro-6H-thiazolo[5,4-d]azepine dihydrochloride]",ED (50 beats/min),vagotomized rats; [3],0.012 mg/kg
"C=CCN1CCc2nc(N)sc2CC1.Cl.Cl [E, 2-Amino-6-allyl-4,5,7,8-tetrahydro-6H-thiazolo[5,4-d]azepine dihydrochloride]",ED (50 beats/min),vagotomized rats; [3],0.042 mg/kg
same,LD50 at 336 h,[1],455 mg/kg
"Cl.Cl.Nc1nc2c(s1)CCN(CCO)CC2 [F, 2-Amino-6-(2-hydroxy-ethyl)-4,5,7,8-tetrahydro-6H-thiazolo[5,4-d]azepine dihydrochloride]",ED (50 beats/min),vagotomized rats; [3],0.037 mg/kg
same,LD50 at 336 h,[1],~1000 mg/kg
"Nc1nc2c(s1)CCN(Cc1ccc(Cl)cc1)CC2 [G, 2-Amino-6-(4-chloro-benzyl)-4,5,7,8-tetrahydro-6H-thiazolo[5,4-d]azepine dihydrocloride]",ED (50 beats/min),vagotomized rats; [3],1.4 mg/kg
same,LD50 at 336 h,[1],905 mg/kg
